Assay: Biodistribution of 99mTcN-DESI in SD rats (Group A alone, Group B with unlabeled desipramine)
Format: in vivo
Conditions: for Blood % dose/g / Brain % dose/g / Heart % dose/g / Kidney % dose/g / Liver % dose/g / Lung % dose/g / Muscle % dose/g / Spleen % dose/g / Submaxillary glands % dose/g / Adrenal glands % dose/g: Group B (with 1.0 mg/kg unlabeled desipramine)
Experimental: The biodistribution of the ^99mTcN-DESI in SD rats obtained in Example 15 was measured.
Before being injected into the rats, the ^99mTcN-DESI was separated and purified from the excess and free bidentate ligand by HPLC. The active ingredient of the complex was further purified by passage through a Sep-Pak cartridge activated with 5 ml of 95% ethanol. The final active ingredient was recovered with 95% ethanol and diluted with physiological saline containing 10% Tween 80.
The rats were divided into two groups, group A and group B. Into each rat in group A was injected 20 μCi of the ^99mTcN-DESI. Into each rat in group B were injected 20 μCi of the ^99mTcN-DESI and 1.0 mg/kg of unlabeled desipramine at the same time.
SD rats weighing about 250 g were put under intraperitoneal anesthesia with a mixture of xylazine (18 mg/kg) and ketamine (15 mg/kg) and given an injection in the jugular vein. Then, the organs (brain, heart, lung, liver, spleen, kidney, muscle, adrenal, and submaxillary gland) were excised from the rats at different intervals of time, washed and then weighed. In addition, blood samples were collected and then weighed. The data on the biodistribution are expressed as the mean±significant difference of the percentage of radioactivity level per gram of the organ weight based on the dose of radioactivity, (% dose/g). The measurement was carried out using groups of 3 rats each.

**Q.** For `COCCC[P+]1(CCCOC)CCN(CCOC)CC[P+](CCCOC)(CCCOC)[99Tc-2]12(#[N])[NH]C(C(=O)N(C)CCCN1c3ccccc3CCc3ccccc31)C[S]2` (stereo not drawn) [^99mTcN-DESI], which Blood % dose/g (2 min) is on record?
**A.** The Blood % dose/g was 0.467 ± 0.011 % dose/g.

**Q.** And the Brain % dose/g (2 min)?
**A.** The Brain % dose/g was 0.032 ± 0.004 % dose/g.

**Q.** What about the Heart % dose/g (2 min) of the same compound?
**A.** The Heart % dose/g was 0.793 ± 0.037 % dose/g.

**Q.** What about the Kidney % dose/g (2 min) of the same compound?
**A.** The Kidney % dose/g was 5.492 ± 0.602 % dose/g.

**Q.** What about the Liver % dose/g (2 min) of the same compound?
**A.** The Liver % dose/g was 5.149 ± 0.787 % dose/g.

**Q.** And the Lung % dose/g (2 min)?
**A.** The Lung % dose/g was 0.488 ± 0.042 % dose/g.

**Q.** What about the Muscle % dose/g (2 min) of the same compound?
**A.** The Muscle % dose/g was 0.103 ± 0.002 % dose/g.

**Q.** What about the Spleen % dose/g (2 min) of the same compound?
**A.** The Spleen % dose/g was 1.841 ± 0.197 % dose/g.

**Q.** What about the “Submaxillary glands % dose/g” value (2 min) of the same compound?
**A.** The value was 1.878 ± 0.09 % dose/g.

**Q.** And the “Adrenal glands % dose/g” value (5 min)?
**A.** The value was 4.480 ± 0.991 % dose/g.

**Q.** And the Blood % dose/g (5 min)?
**A.** The Blood % dose/g was 0.277 ± 0.028 % dose/g.

**Q.** And the Brain % dose/g (5 min)?
**A.** The Brain % dose/g was 0.029 ± 0.003 % dose/g.

**Q.** What about the Heart % dose/g (5 min) of the same compound?
**A.** The Heart % dose/g was 0.819 ± 0.052 % dose/g.

**Q.** What about the Kidney % dose/g (5 min) of the same compound?
**A.** Its Kidney % dose/g is 5.899 ± 1.397 % dose/g.

**Q.** What about the Liver % dose/g (5 min) of the same compound?
**A.** The Liver % dose/g was 6.420 ± 0.378 % dose/g.

**Q.** What about the Lung % dose/g (5 min) of the same compound?
**A.** The Lung % dose/g was 0.353 ± 0.028 % dose/g.

**Q.** And the Muscle % dose/g (5 min)?
**A.** The Muscle % dose/g was 0.101 ± 0.014 % dose/g.

**Q.** And the Spleen % dose/g (5 min)?
**A.** Its Spleen % dose/g is 2.032 ± 0.197 % dose/g.

**Q.** What about the “Submaxillary glands % dose/g” value (5 min) of the same compound?
**A.** The value was 1.786 ± 0.201 % dose/g.

**Q.** And the “Adrenal glands % dose/g” value (10 min)?
**A.** The value was 4.349 ± 0.164 % dose/g.

**Q.** And the Blood % dose/g (10 min)?
**A.** The Blood % dose/g was 0.170 ± 0.020 % dose/g.

**Q.** What about the Brain % dose/g (10 min) of the same compound?
**A.** The Brain % dose/g was 0.018 ± 0.001 % dose/g.

**Q.** And the Heart % dose/g (10 min)?
**A.** The Heart % dose/g was 0.814 ± 0.023 % dose/g.

**Q.** And the Kidney % dose/g (10 min)?
**A.** The Kidney % dose/g was 5.192 ± 0.036 % dose/g.

**Q.** What about the Liver % dose/g (10 min) of the same compound?
**A.** Its Liver % dose/g is 4.732 ± 0.057 % dose/g.

**Q.** And the Lung % dose/g (10 min)?
**A.** The Lung % dose/g was 0.348 ± 0.003 % dose/g.

**Q.** What about the Muscle % dose/g (10 min) of the same compound?
**A.** Its Muscle % dose/g is 0.086 ± 0.007 % dose/g.

**Q.** What about the Spleen % dose/g (10 min) of the same compound?
**A.** The Spleen % dose/g was 1.559 ± 0.074 % dose/g.

**Q.** And the “Submaxillary glands % dose/g” value (10 min)?
**A.** Its value is 1.669 ± 0.126 % dose/g.

**Q.** What about the “Adrenal glands % dose/g” value (30 min) of the same compound?
**A.** The value was 6.120 ± 2.224 % dose/g.

**Q.** What about the Blood % dose/g (30 min) of the same compound?
**A.** Its Blood % dose/g is 0.169 ± 0.028 % dose/g.

**Q.** And the Brain % dose/g (30 min)?
**A.** The Brain % dose/g was 0.018 ± 0.003 % dose/g.

**Q.** And the Heart % dose/g (30 min)?
**A.** Its Heart % dose/g is 0.832 ± 0.170 % dose/g.

**Q.** What about the Kidney % dose/g (30 min) of the same compound?
**A.** The Kidney % dose/g was 7.883 ± 1.689 % dose/g.

**Q.** And the Liver % dose/g (30 min)?
**A.** The Liver % dose/g was 4.957 ± 0.168 % dose/g.

**Q.** And the Lung % dose/g (30 min)?
**A.** Its Lung % dose/g is 0.27 ± 0.117 % dose/g.

**Q.** What about the Muscle % dose/g (30 min) of the same compound?
**A.** Its Muscle % dose/g is 0.091 ± 0.011 % dose/g.

**Q.** What about the Spleen % dose/g (30 min) of the same compound?
**A.** The Spleen % dose/g was 1.339 ± 0.380 % dose/g.

**Q.** What about the “Submaxillary glands % dose/g” value (30 min) of the same compound?
**A.** Its value is 1.042 ± 0.123 % dose/g.

**Q.** And the “Adrenal glands % dose/g” value (60 min)?
**A.** Its value is 4.321 ± 0.712 % dose/g.

**Q.** And the Blood % dose/g (60 min)?
**A.** Its Blood % dose/g is 0.074 ± 0.016 % dose/g.

**Q.** And the Brain % dose/g (60 min)?
**A.** Its Brain % dose/g is 0.016 ± 0.002 % dose/g.

**Q.** And the Heart % dose/g (60 min)?
**A.** The Heart % dose/g was 0.693 ± 0.057 % dose/g.

**Q.** And the Kidney % dose/g (60 min)?
**A.** Its Kidney % dose/g is 5.176 ± 0.584 % dose/g.

**Q.** And the Liver % dose/g (60 min)?
**A.** The Liver % dose/g was 2.505 ± 0.113 % dose/g.

**Q.** And the Lung % dose/g (60 min)?
**A.** The Lung % dose/g was 0.253 ± 0.014 % dose/g.

**Q.** And the Muscle % dose/g (60 min)?
**A.** Its Muscle % dose/g is 0.110 ± 0.024 % dose/g.

**Q.** And the Spleen % dose/g (60 min)?
**A.** Its Spleen % dose/g is 1.403 ± 0.209 % dose/g.

**Q.** What about the “Submaxillary glands % dose/g” value (60 min) of the same compound?
**A.** Its value is 1.596 ± 0.138 % dose/g.

**Q.** What about the “Adrenal glands % dose/g” value (120 min) of the same compound?
**A.** Its value is 4.588 ± 0.985 % dose/g.

**Q.** What about the Blood % dose/g (120 min) of the same compound?
**A.** Its Blood % dose/g is 0.050 ± 0.007 % dose/g.

**Q.** And the Brain % dose/g (120 min)?
**A.** The Brain % dose/g was 0.004 ± 0.000 % dose/g.

**Q.** What about the Heart % dose/g (120 min) of the same compound?
**A.** Its Heart % dose/g is 0.745 ± 0.063 % dose/g.

**Q.** What about the Kidney % dose/g (120 min) of the same compound?
**A.** The Kidney % dose/g was 5.737 ± 0.093 % dose/g.

**Q.** What about the Liver % dose/g (120 min) of the same compound?
**A.** Its Liver % dose/g is 1.159 ± 0.09 % dose/g.

**Q.** What about the Lung % dose/g (120 min) of the same compound?
**A.** The Lung % dose/g was 0.206 ± 0.048 % dose/g.

**Q.** What about the Muscle % dose/g (120 min) of the same compound?
**A.** Its Muscle % dose/g is 0.343 ± 0.443 % dose/g.

**Q.** What about the Spleen % dose/g (120 min) of the same compound?
**A.** Its Spleen % dose/g is 1.865 ± 0.313 % dose/g.

**Q.** What about the “Submaxillary glands % dose/g” value (120 min) of the same compound?
**A.** Its value is 1.641 ± 0.280 % dose/g.

**Q.** And the “Adrenal glands % dose/g” value (150 min)?
**A.** Its value is 4.09 ± 0.294 % dose/g.

**Q.** What about the Blood % dose/g (150 min) of the same compound?
**A.** The Blood % dose/g was 0.050 ± 0.014 % dose/g.

**Q.** What about the Brain % dose/g (150 min) of the same compound?
**A.** The Brain % dose/g was 0.001 ± 0.000 % dose/g.

**Q.** What about the Heart % dose/g (150 min) of the same compound?
**A.** Its Heart % dose/g is 0.815 ± 0.070 % dose/g.

**Q.** And the Kidney % dose/g (150 min)?
**A.** The Kidney % dose/g was 5.646 ± 1.192 % dose/g.

**Q.** What about the Liver % dose/g (150 min) of the same compound?
**A.** The Liver % dose/g was 1.253 ± 0.006 % dose/g.

**Q.** What about the Lung % dose/g (150 min) of the same compound?
**A.** Its Lung % dose/g is 0.163 ± 0.036 % dose/g.

**Q.** And the Muscle % dose/g (150 min)?
**A.** Its Muscle % dose/g is 0.096 ± 0.007 % dose/g.

**Q.** And the Spleen % dose/g (150 min)?
**A.** The Spleen % dose/g was 1.637 ± 0.147 % dose/g.

**Q.** What about the “Submaxillary glands % dose/g” value (150 min) of the same compound?
**A.** Its value is 1.983 ± 0.339 % dose/g.

**Q.** What about the accumulation in adrenal (SD rats) of the same compound?
**A.** Its accumulation in adrenal is “very large amount”.

**Q.** What about the accumulation in heart (SD rats) of the same compound?
**A.** Its accumulation in heart is “considerable amount”.

**Q.** And the “elimination through liver and kidney” value (SD rats)?
**A.** The value was “very rapidly eliminated”.
